We go through 2 compounds from patent US8722582B2, “Thermodynamically stable crystal modification of 2-({2-chloro-4-(methylsulfonyl)-3-[(2,2,2-trifluoroethoxy)methyl]phenyl} carbonyl)cyclohexane-1,3-dione” (Bayer Cropscience AG, priority 2007, dated 2014).

Series [1] can be described thus: Stability test: storage of an oil dispersion. The class given is physicochemical. The settings on record: oil dispersion of tembotrione; after several weeks of storage; compared to oil dispersion of crystal modification II, III or a mixture thereof.
A short description of series [2]: Tests in practice of suspension formulations. The class given is physicochemical. Conditions: tembotrione finely ground in solid form, spontaneously or over a relatively long period of time. The source says:
Tembotrione, which is known, for example, from WO 00/21924 (example No. 3 in table 1), has herbicidal properties and is suitable for preparing crop protection compositions used for weed control. […] User-friendly presentation forms are, for example, suspension formulations in which tembotrione is present finely ground in solid form. […] The crystal growth may occur spontaneously or over a relatively long period of time and is unpredictable.

As for `CS(=O)(=O)c1ccc(C(=O)C2C(=O)CCCC2=O)c(Cl)c1COCC(F)(F)F` [crystal modification I, 2-({2-chloro-4-(methylsulfonyl)-3-[(2,2,2-trifluoroethoxy)methyl]phenyl}carbonyl)cyclohexan-1,3-dione], the “signs of agglomeration and precipitation on storage” value in series [1] was “no signs of agglomeration and precipitation”.
On to `CS(=O)(=O)c1ccc(C(=O)C2C(=O)CCCC2=O)c(Cl)c1COCC(F)(F)F` [tembotrione, 2-({2-chloro-4-(methylsulfonyl)-3-[(2,2,2-trifluoroethoxy)methyl]phenyl}carbonyl)cyclohexan-1,3-dione], for which the “crystal growth, agglomeration and precipitation in suspension formulation” value in series [2] was “leads to crystal growth and, as a consequence thereof, to agglomeration and precipitation”.
